This series is described as follows: recombinant UMI read abundance after kanamycin selection (control-corrected) (log10(CPM+1)); higher = more efficient recombination; extreme values may be limits of the assay; sequences stand for … in AGTGCAGAGAAAATCGGCCAGTTTTCTCTGCCTGCAGTCCGCATGCCGTGGGACCCCTTGGGTTCTAACCTGTTGCCTAGATTTATGCAGCGGACTGCCTTTCTCCCAAAGTGATAAACCGG…AGGTTGGTTTCACT; site = the 11-nt donor. Here is the method:
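Pooled E. coli donor-specificity screen for the IS621 bridge recombinase. Each library member carries a reprogrammed 11-nt donor and a full-length LE bridge RNA expressed in cis from the natural promoter, with a paired donor-binding loop (8-nt LDG + 4-nt RDG) and a target-binding loop fixed to T5. It is co-electroporated with a T5 target plasmid; recombinase is induced with 0.07 mM IPTG and recombinants are selected on kanamycin. UMIs are counted as CPM, averaged over two biological replicates and corrected by the unselected control. Molecule = full bridge RNA written as DNA, built from the T5 scaffold: LDG = donor specificity nt 1-8, RDG = reverse complement of nt 8-11.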
On to “AAGCACGCATGGACCGGTTTTCCCGGTAATCCGTATTTGGC (site AAGCACGCTCC)”, for which the “recombinant UMI read abundance (log10)” value is 0.0935.
For “AAGCACGCATGGACCGGTTTTCCCGGTAATCCGTATTTGGC (site AAGCACGCTGC)”, the “recombinant UMI read abundance (log10)” value came out at 2.71.
The figure for “AAGCACGCATGGACCGGTTTTCCCGGTAATCCGTATTTGGC (site AAGCACGCTTC)” is 0.476; for “AAGCACGCATGGACCGGTTTTCCCGGTAATCCGTATTTGGT (site AAGCACGCTAC)” it is 1.48; for “AAGCACGCATGGACCGGTTTTCCCGGTAATCCGTATTTGGT (site AAGCACGCTCC)” it is 0.315.
To “AAGCACGCATGGACCGGTTTTCCCGGTAATCCGTATTTGGT (site AAGCACGCTGC)” belongs 1.24.
As to “AAGCACGCATGGACCGGTTTTCCCGGTAATCCGTATTTGGT (site AAGCACGCTTC)”, the “recombinant UMI read abundance (log10)” value stood at 0.427.
Regarding “AAGCATACATGGACCGGTTTTCCCGGTAATCCGTATTTGAC (site AAGCATACTGT)”, the “recombinant UMI read abundance (log10)” value came out at 2.88.
For “AAGCCCGCATGGACCGGTTTTCCCGGTAATCCGTATTTGGG (site AAGCACGCTCC)”, the “recombinant UMI read abundance (log10)” value amounted to 0.00486.
To “AAGCCCGCATGGACCGGTTTTCCCGGTAATCCGTATTTGGG (site AAGCCCGCTCC)” belongs 0.0203; to “AAGCCCGCATGGACCGGTTTTCCCGGTAATCCGTATTTGGG (site AAGCGCGCTCC)”, 0.0392; to “AAGCCCGCATGGACCGGTTTTCCCGGTAATCCGTATTTGGG (site AAGCTCGCTCC)”, 0.0406.
Consider “AAGCCGGCATGGACCGGTTTTCCCGGTAATCCGTATTTGGC (site AAGCCGGCTGC)”, for which the “recombinant UMI read abundance (log10)” value was found to be 0.
Regarding “AAGCGCTCATGGACCGGTTTTCCCGGTAATCCGTATTTGCG (site AAGCGCTCTCG)”, the “recombinant UMI read abundance (log10)” value came out at 2.26.
In the case of “AAGGAAACATGGACCGGTTTTCCCGGTAATCCGTATTTGCA (site AAGGAAACTTG)”, the “recombinant UMI read abundance (log10)” value was found to be 2.06.
To “AAGGAATCATGGACCGGTTTTCCCGGTAATCCGTATTTGCG (site AAGGAATCTCG)” belongs 3.14; to “AAGGAATCATGGACCGGTTTTCCCGGTAATCCGTATTTGCG (site CAGGAATCTCG)”, 2.38; to “AAGGAATCATGGACCGGTTTTCCCGGTAATCCGTATTTGCG (site GAGGAATCTCG)”, 2.74.
For “AAGGAATCATGGACCGGTTTTCCCGGTAATCCGTATTTGCG (site TAGGAATCTCG)”, the “recombinant UMI read abundance (log10)” value came to 3.08.
Consider “AAGGACTCATGGACCGGTTTTCCCGGTAATCCGTATTTGTT (site AAGGACTCTAA)”, for which the “recombinant UMI read abundance (log10)” value amounted to 2.9.
As for “AAGGAGCCATGGACCGGTTTTCCCGGTAATCCGTATTTGGG (site AAGGAGCCTCC)”, the “recombinant UMI read abundance (log10)” value amounted to 0.00843.
To “AAGGATGCATGGACCGGTTTTCCCGGTAATCCGTATTTGTG (site AAGGATGCTCA)” belongs 2.3; to “AAGGCGACATGGACCGGTTTTCCCGGTAATCCGTATTTGGA (site AAGGCGACTTC)”, 0.0223; to “AAGGGCCCATGGACCGGTTTTCCCGGTAATCCGTATTTGGC (site AAGGGCCCTGC)”, 0.674.
With “AAGGGGTCATGGACCGGTTTTCCCGGTAATCCGTATTTGAT (site AAGGGGTCTAT)”, the “recombinant UMI read abundance (log10)” value came to 2.94.
Regarding “AAGGGTTCATGGACCGGTTTTCCCGGTAATCCGTATTTGTC (site AAGGGTTCTGA)”, the “recombinant UMI read abundance (log10)” value came out at 2.5.
Take “AAGGTTGCATGGACCGGTTTTCCCGGTAATCCGTATTTGCA (site AAGGTTGCTTG)”: the “recombinant UMI read abundance (log10)” value was 2.22.
With “AAGTAACCATGGACCGGTTTTCCCGGTAATCCGTATTTGGA (site AAGTAACCTTC)”, the “recombinant UMI read abundance (log10)” value is 0.105.
The figure for “AAGTACGCATGGACCGGTTTTCCCGGTAATCCGTATTTGGG (site AAGAACGCTCC)” is 0.14; for “AAGTACGCATGGACCGGTTTTCCCGGTAATCCGTATTTGGG (site AAGCACGCTCC)” it is 0.0289.
The figure for “AAGTACGCATGGACCGGTTTTCCCGGTAATCCGTATTTGGG (site AAGGACGCTCC)” is 0.492.
With “AAGTACGCATGGACCGGTTTTCCCGGTAATCCGTATTTGGG (site AAGTACGCTCC)”, the “recombinant UMI read abundance (log10)” value amounted to 0.423.
For “AAGTCCACATGGACCGGTTTTCCCGGTAATCCGTATTTGCT (site AAGTCCACTAG)”, the “recombinant UMI read abundance (log10)” value was determined as 1.56.
For the sequence “AAGTTACCATGGACCGGTTTTCCCGGTAATCCGTATTTGAC (site AAGTTACCTGT)”, the “recombinant UMI read abundance (log10)” value was 0.
Take “AATAGCCCATGGACCGGTTTTCCCGGTAATCCGTATTTGAC (site AATAGCCCTGT)”: the “recombinant UMI read abundance (log10)” value is 1.07.
For the sequence “AATAGTGCATGGACCGGTTTTCCCGGTAATCCGTATTTGAG (site AATAGTGCTCT)”, the “recombinant UMI read abundance (log10)” value is 1.4.
As to “AATATAGCATGGACCGGTTTTCCCGGTAATCCGTATTTGCC (site AATATAGCTGG)”, the “recombinant UMI read abundance (log10)” value was found to be 1.53.
To “AATATGACATGGACCGGTTTTCCCGGTAATCCGTATTTGTG (site AATATGACTCA)” belongs 0.774.
To “AATCACCCATGGACCGGTTTTCCCGGTAATCCGTATTTGCT (site AATCACCCTAG)” belongs 0.532.
Turning to “AATCATACATGGACCGGTTTTCCCGGTAATCCGTATTTGGT (site AATCATACTAC)”, the “recombinant UMI read abundance (log10)” value came out at 0.556.
Turning to “AATCTCACATGGACCGGTTTTCCCGGTAATCCGTATTTGCT (site AATCTCACTAG)”, the “recombinant UMI read abundance (log10)” value came out at 1.64.
In the case of “AATCTCCCATGGACCGGTTTTCCCGGTAATCCGTATTTGCT (site AATCTCCCTAG)”, the “recombinant UMI read abundance (log10)” value was found to be 0.736.
“AATGAGTCATGGACCGGTTTTCCCGGTAATCCGTATTTGAC (site AATGAGTCTGT)”: the “recombinant UMI read abundance (log10)” value stood at 3.25.
In the case of “AATGAGTCATGGACCGGTTTTCCCGGTAATCCGTATTTGAC (site AATGCGTCTGT)”, the “recombinant UMI read abundance (log10)” value stood at 0.
In the case of “AATGAGTCATGGACCGGTTTTCCCGGTAATCCGTATTTGAC (site AATGGGTCTGT)”, the “recombinant UMI read abundance (log10)” value stood at 0.
As for “AATGAGTCATGGACCGGTTTTCCCGGTAATCCGTATTTGAC (site AATGTGTCTGT)”, the “recombinant UMI read abundance (log10)” value amounted to 0.822.
Regarding “AATGAGTCATGGACCGGTTTTCCCGGTAATCCGTATTTGAT (site AATGAGTCTAT)”, the “recombinant UMI read abundance (log10)” value came to 2.52.
For “AATGATCCATGGACCGGTTTTCCCGGTAATCCGTATTTGCG (site AATGATCCTCG)”, the “recombinant UMI read abundance (log10)” value was found to be 0.677.
As for “AATGGCCCATGGACCGGTTTTCCCGGTAATCCGTATTTGTA (site AATGGCCCTTA)”, the “recombinant UMI read abundance (log10)” value is 0.0128.
On to “AATGTAACATGGACCGGTTTTCCCGGTAATCCGTATTTGAT (site AATGTAACTAA)”, for which the “recombinant UMI read abundance (log10)” value was 0.00583.
With “AATGTAACATGGACCGGTTTTCCCGGTAATCCGTATTTGAT (site AATGTAACTAC)”, the “recombinant UMI read abundance (log10)” value turned out to be 0.00741.
With “AATGTAACATGGACCGGTTTTCCCGGTAATCCGTATTTGAT (site AATGTAACTAG)”, the “recombinant UMI read abundance (log10)” value worked out at 0.00602.
Turning to “AATGTAACATGGACCGGTTTTCCCGGTAATCCGTATTTGAT (site AATGTAACTAT)”, the “recombinant UMI read abundance (log10)” value worked out at 2.15.
Take “AATGTAACATGGACCGGTTTTCCCGGTAATCCGTATTTGCA (site AATGTAACTAG)”: the “recombinant UMI read abundance (log10)” value is 0.
The figure for “AATGTAACATGGACCGGTTTTCCCGGTAATCCGTATTTGCA (site AATGTAACTCG)” is 0.0207; for “AATGTAACATGGACCGGTTTTCCCGGTAATCCGTATTTGCA (site AATGTAACTGG)” it is 0; for “AATGTAACATGGACCGGTTTTCCCGGTAATCCGTATTTGCA (site AATGTAACTTG)” it is 1.78.
The figure for “AATGTAACATGGACCGGTTTTCCCGGTAATCCGTATTTGCC (site AATGTAACTAG)” is 0.
On to “AATGTAACATGGACCGGTTTTCCCGGTAATCCGTATTTGCC (site AATGTAACTCG)”, for which the “recombinant UMI read abundance (log10)” value was 0.
As for “AATGTAACATGGACCGGTTTTCCCGGTAATCCGTATTTGCC (site AATGTAACTGG)”, the “recombinant UMI read abundance (log10)” value stood at 2.15.
The figure for “AATGTAACATGGACCGGTTTTCCCGGTAATCCGTATTTGCC (site AATGTAACTTG)” is 1.34.
For the sequence “AATGTAACATGGACCGGTTTTCCCGGTAATCCGTATTTGGT (site AATGTAACTAA)”, the “recombinant UMI read abundance (log10)” value came out at 0.557.
In the case of “AATGTAACATGGACCGGTTTTCCCGGTAATCCGTATTTGGT (site AATGTAACTAC)”, the “recombinant UMI read abundance (log10)” value is 1.36.
For the sequence “AATGTAACATGGACCGGTTTTCCCGGTAATCCGTATTTGGT (site AATGTAACTAG)”, the “recombinant UMI read abundance (log10)” value is 0.
As for “AATGTAACATGGACCGGTTTTCCCGGTAATCCGTATTTGGT (site AATGTAACTAT)”, the “recombinant UMI read abundance (log10)” value amounted to 0.468.

(Values after the supplement of paper PMC11208160.)
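Note: IS621 bridge recombinase in Escherichia coli cells against a fixed T5 target plasmid.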
